Results from paper PMC10650850, “Discovery, Structure–Activity Relationship and In Vitro Anticancer Activity of Small-Molecule Inhibitors of the Protein–Protein Interactions between AF9/ENL and AF4 or DOT1L” (Cancers, 2023).
Structures can show the parent of a compound that is named as a salt.

The compounds below were run against T1, AF9-DOT1L interaction (Homo sapiens, UniProt P42568) (assay: AlphaLisa assay, AF9-DOT1L interaction). Conditions: not given.
T1 construct: human AF9 AHD domain (475–568); made in house; host or cells: E. coli BL21(DE3)
T1 sequence (P42568 475-568): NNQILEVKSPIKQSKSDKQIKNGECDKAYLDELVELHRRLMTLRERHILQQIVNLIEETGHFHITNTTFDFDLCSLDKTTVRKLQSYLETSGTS
Assay type: binding
Source text: An AlphaLisa assay we previously developed was used for compound screening for inhibitors of the AF9-DOT1L interaction. The PPI takes the DOT1L-peptide coated donor beads and AF9 AHD coated acceptor beads together. The donor beads are illuminated with a laser beam (680 nm) to generate singlet oxygen radicals, which activate the adjacent acceptor beads to produce luminescence at 615 nm. When a compound can disrupt such PPI and separate the donor and acceptor beads, the highly unstable radicals are rapidly quenched by water without generating luminescence.
The cDNA for the human AF9 AHD domain (475–568) and ENL AHD domain (489–559) was synthesized (by Genscript, Piscataway, NJ, USA) and inserted into the pMAL c5X expression plasmid. The DOT1L peptide (Biotin-AHX-[…]) and AF4 peptide (Biotin-AHX-[…]) for the Alpha assay were purchased from Genscript.
Alpha assays were developed in our previous publication, using a Perkin-Elmer AlphaLisa anti-MBP kit, which contains streptavidin donor beads and anti-MBP acceptor beads. Briefly, the assay was performed using a MBP-protein (5 nM), a biotinylated peptide (40 nM), and increasing concentrations of a compound in 25 µL buffer (PBS with 0.5% BSA, pH 7.5) in 384-well plates according to the manufacturer’s protocol and measured with a Tecan SPARK microplate reader. Data were imported into Prism (version 5.0), and IC50 values from 3 independent experiments with standard deviation were obtained by using a standard dose-response curve fitting.

Row | Inhibitory activity against the AF9-DOT1L interaction (in words) | Compound
1 | almost inactive | O=C(NCC1CCNCC1)c1cc2ccc(-c3ccsc3)cc2[nH]1 [Compound 11]
2 | inactive | Cl.O=C(NCC1CCNCC1)c1cc2ccc(-c3ccc(C(=O)N4CCC(N5CCCC5)CC4)cc3)cc2s1 [Compound 34, 6-(4-(4-(Pyrrolidin-1-yl)piperidin-1-carbonyl)phenyl)-N-(piperidin-4-ylmethyl)-benzo[b]thiophene-2-carboxamide hydrochloride]

Same assay, conditions: MBP-protein 5 nM, biotinylated peptide 40 nM, 3 independent experiments with standard deviation, read-out: IC50 (μM) against the AF9-DOT1L interaction

Row | IC50 | Compound
3 | 2.3 ± 0.2 µM | O=C(NCC1CCNCC1)c1cc2ccc(Nc3ccc(N4CCCCC4)cc3)cc2s1 [Compound 35, 6-((4-(Piperidin-1-yl)phenyl)amino)-N-(piperidin-4-ylmethyl)-benzo[b]thiophene-2-carboxamide hydrochloride]
4 | 3.3 ± 0.2 µM | O=C(NCC1CCNCC1)c1cc2ccc(-c3ccc(N4CCCCC4)cc3)cc2[nH]1 [Compound 1]
5 | ~5 µM | O=C(NCC1CCNCC1)c1cc2ccc(Oc3ccc(Oc4ccc(Cl)cc4)cc3)cc2s1 [Compound 36, 6-(4-(4-Chlorophenoxyl)phenoxyl)-N-(piperidin-4-ylmethyl)-benzo[b]thiophene-2-carboxamide hydrochloride]
6 | 4.6 ± 0.3 µM | O=C(NCC1CCNCC1)c1cc2ccc(Nc3ccc(N4CCCCC4)cc3)cc2o1 [Compound 74, 6-((4-(Piperidin-1-yl)phenyl)amino)-N-(piperidin-4-ylmethyl)-benzofuran-2-carboxamide hydrochloride]

Same assay, conditions: compound at 5 μM, read-out: % Inhibition at 5 μM against the AF9-DOT1L interaction

Row | Compound | inhibition at 5 µM
7 | CCN(CC)c1ccc(-c2ccc3cc(C(=O)NCC4CCNCC4)sc3c2)cc1 [Compound 27, 6-(4-(Diethylamino)phenyl)-N-(piperidin-4-ylmethyl)-benzo[b]thiophene-2-carboxamide hydrochloride] | 25%
8 | O=C(NCC1CCNCC1)c1cc2ccc(-c3ccc(CN4CCCCC4)cc3)cc2s1 [Compound 28, 6-(4-(Piperidin-1-ylmethyl)phenyl)-N-(piperidin-4-ylmethyl)-benzo[b]thiophene-2-carboxamide hydrochloride] | 45%
9 | CC(=O)c1ccc(-c2ccc3cc(C(=O)NCC4CCNCC4)[nH]c3c2)cc1 [Compound 8, 6-(4-Acetophenyl)-N-(piperidin-4-ylmethyl)-1H-indole-2-carboxamide hydrochloride] | 37%
10 | O=C(NCC1CCNCC1)c1cc2ccc(-c3ccc(C4CCCCC4)cc3)cc2[nH]1 [Compound 4, 6-(4-Cyclohexylphenyl)-N-(piperidin-4-ylmethyl)-1H-indole-2-carboxamide hydrochloride] | 31%
11 | O=C(NCC1CCNCC1)c1cc2ccc(-c3ccsc3)cc2[nH]1 [Compound 11] | 10%
12 | O=C(NCC1CCNCC1)c1cc2ccc(-c3ccc(C(=O)N4CCCC4)cc3)cc2s1 [Compound 30] | 0%
13 | O=C(NCC1CCNCC1)c1cc2ccc(N3CCC(N4CCCC4)CC3)cc2s1 [Compound 32] | 20%
14 | O=C(NCC1CCNCC1)c1c[nH]c2ccc(-c3ccc(N4CCCCC4)cc3)cc12 [Compound 23, 5-(4-(Piperidin-1-yl)phenyl)-N-(piperidin-4-ylmethyl)-1H-indole-3-carboxamide hydrochloride] | 43%
15 | O=C(NCC1CCNCC1)c1cc2ccc(-c3ccc(C(=O)N4CCCCC4)cc3)cc2s1 [Compound 29, 6-(4-(Piperidine-1-carbonyl)phenyl)-N-(piperidin-4-ylmethyl)-benzo[b]thiophene-2-carboxamide hydrochloride] | 8%
16 | O=C(NCC1CCNCC1)c1c[nH]c2cc(-c3ccc(N4CCOCC4)cc3)ccc12 [Compound 13, 6-(4-(Morpholinophenyl)-N-(piperidin-4-ylmethyl)-1H-indole-3-carboxamide hydrochloride] | 29%
17 | Cl.O=C(NCC1CCNCC1)c1cc2ccc(-c3ccc(C(=O)N4CCC(N5CCCC5)CC4)cc3)cc2s1 [Compound 34, 6-(4-(4-(Pyrrolidin-1-yl)piperidin-1-carbonyl)phenyl)-N-(piperidin-4-ylmethyl)-benzo[b]thiophene-2-carboxamide hydrochloride] | 5%
18 | O=C(NCC1CCNCC1)c1cc2ccc(N3CCC(N4CCCCC4)CC3)cc2s1 [Compound 31] | 14%
19 | O=C(NCC1CCNCC1)c1cc2ccc(-c3ccc(N4CCOCC4)cc3)cc2s1 [Compound 26, 6-(4-(Morpholino)phenyl)-N-(piperidin-4-ylmethyl)-benzo[b]thiophene-2-carboxamide hydrochloride] | 40%

Continued, values first:

Row | inhibition at 5 µM | Compound
20 | 24% | O=C(NCC1CCNCC1)c1cc2cc(Nc3ccc(OC(F)(F)F)cc3)ccc2s1 [Compound 56, 5-((4-(Trifluoromethoxyl)phenyl)amino)-N-(piperidin-4-ylmethyl)-benzo[b]thiophene-2-carboxamide hydrochloride]
21 | 18% | O=C(NCC1CCNCC1)c1cc2ccc(-c3ccc(C4CCCCC4)cc3)cc2o1 [Compound 61, 6-(4-Cyclohexylphenyl)-N-(piperidin-4-ylmethyl)-benzofuran-2-carboxamide hydrochloride]
22 | 0% | O=C(NCC1CCNCC1)c1cc2ccc(-c3ccc(O)cc3)cc2s1 [Compound 46, 6-(4-Hydroxylphenyl)-N-(piperidin-4-ylmethyl)-benzo[b]thiophene-2-carboxamide hydrochloride]
23 | 47% | Cc1ccc(-c2ccc3cc(C(=O)NCC4CCNCC4)sc3c2)cc1 [Compound 47, 6-(4-Methylphenyl)-N-(piperidin-4-ylmethyl)-benzo[b]thiophene-2-carboxamide hydrochloride]
24 | 31% | O=C(NCC1CCNCC1)c1cc2cc(-c3ccc(C(=O)N4CCCCC4)cc3)ccc2s1 [Compound 51, 5-(4-(Piperidine-1-carbonyl)phenyl)-N-(piperidin-4-ylmethyl)-benzo[b]thiophene-2-carboxamide hydrochloride]
25 | 21% | O=C(NCC1CCNCC1)c1cc2ccc(-c3ccc(F)cc3)cc2s1 [Compound 49, 6-(4-Fluorophenyl)-N-(piperidin-4-ylmethyl)-benzo[b]thiophene-2-carboxamide hydrochloride]
26 | 0% | O=C(NCC1CCNCC1)c1cc2ccc(-c3ccc(C(=O)N4CCCCCC4)cc3)cc2o1 [Compound 65, 6-(4-((Azepane-1-yl)carbonyl)phenyl)-N-(piperidin-4-ylmethyl)-benzofuran-2-carboxamide hydrochloride]
27 | 0% | O=C(NCC1CCNCC1)c1cc2ccc(-c3ccc(C(=O)N4CCCCC4)cc3)cc2o1 [Compound 64, 6-(4-((Piperidine-1-yl)carbonyl)phenyl)-N-(piperidin-4-ylmethyl)-benzofuran-2-carboxamide hydrochloride]
28 | 38% | O=C(NCC1CCNCC1)c1cc2ccc(-c3ccc(N4CCNCC4)cc3)cc2o1 [Compound 59, 6-(4-(Piperazin-1-yl)phenyl)-N-(piperidin-4-ylmethyl)-benzofuran-2-carboxamide hydrochloride]
29 | 0% | CC(=O)Nc1ccc(-c2ccc3cc(C(=O)NCC4CCNCC4)sc3c2)cc1 [Compound 38, 6-(4-(Acetamido)phenyl)-N-(piperidin-4-ylmethyl)-benzo[b]thiophene-2-carboxamide hydrochloride]
30 | 0% | O=C(NCC1CCNCC1)c1cc2ccc(-c3ccc(CO)cc3)cc2s1 [Compound 39, 6-(4-(Hydroxylmethyl)phenyl)-N-(piperidin-4-ylmethyl)-benzo[b]thiophene-2-carboxamide hydrochloride]
31 | 32% | CN1CCN(c2ccc(-c3ccc4cc(C(=O)NCC5CCNCC5)oc4c3)cc2)CC1 [Compound 60, 6-(4-(4-Methylpiperazin-1-yl)phenyl)-N-(piperidin-4-ylmethyl)-benzofuran-2-carboxamide hydrochloride]
32 | 40% | O=C(NCC1CCNCC1)c1cc2ccc(-c3ccc(N4CCOCC4)cc3)cc2o1 [Compound 58, 6-(4-Morpholinophenyl)-N-(piperidin-4-ylmethyl)-benzofuran-2-carboxamide hydrochloride]
33 | 15% | N#Cc1ccc(-c2ccc3cc(C(=O)NCC4CCNCC4)oc3c2)cc1 [Compound 73, 6-(4-Cyanophenyl)-N-(piperidin-4-ylmethyl)-benzofuran-2-carboxamide hydrochloride]
34 | 50% | O=C(NCC1CCNCC1)c1cc2ccc(Oc3ccc(Oc4ccc(Cl)cc4)cc3)cc2s1 [Compound 36, 6-(4-(4-Chlorophenoxyl)phenoxyl)-N-(piperidin-4-ylmethyl)-benzo[b]thiophene-2-carboxamide hydrochloride]
35 | 0% | O=C(NCC1CCNCC1)c1cc2ccc(-c3ccc(C(=O)N4CCC(N5CCCCC5)CC4)cc3)cc2o1 [Compound 66, 6-(4-((1,4′-Bipiperidine-1-yl)carbonyl)phenyl)-N-(piperidin-4-ylmethyl)-benzofuran-2-carboxamide hydrochloride]
36 | 24% | COc1ccc(Oc2ccc3cc(C(=O)NCC4CCNCC4)oc3c2)cc1 [Compound 76, 6-(4-Methoxylphenoxyl)-N-(piperidin-4-ylmethyl)-benzofuran-2-carboxamide hydrochloride]
37 | ~50% | N#CCc1ccc(-c2ccc3cc(C(=O)NCC4CCNCC4)sc3c2)cc1 [Compound 41, 6-(4-(Cyanomethyl)phenyl)-N-(piperidin-4-ylmethyl)-benzo[b]thiophene-2-carboxamide hydrochloride]
38 | 33% | O=C(NCC1CCNCC1)c1cc2ccc(-c3cccc(-c4ccccc4)c3)cc2o1 [Compound 68, 6-((1,1′-Biphenyl)-3-yl)-N-(piperidin-4-ylmethyl)-benzofuran-2-carboxamide hydrochloride]
